According to US10821276B2, “System and method to locally deliver therapeutic agent to inner ear” (The Trustees of Columbia University in the City of New York, priority 2012, dated 2020):
Where “and” joins values, the source holds several entries; their conditions need not be identical. Identical values can stand only once.

Legend:
[1] = intact RWM, cited from earlier work
[2] = Permeability of one pore estimated from diffusion coefficient and membrane thickness (P=D/h); 1% area perforation improvement; conditions: for Ppore: D/h, membrane thickness 10 μm, guinea pig
From the text: From Fick's first law, diffusion is described by J=−D∇ϕ (1) where J is diffusion flux in mol/m^2*s, D is the diffusion coefficient in m^2/s, and ϕ is the concentration in mol/l. Then from a one-dimensional simplification of the pore
[formula] This can be further simplified with the gradient is uniform across the pore to obtain
[formula] where x is the axis through the pore in m, cx is the concentration at both ends in mol/l, and h is the RWM thickness in m. Then from the definition of flux
[formula] the permeability of the membrane is Flux=−PA(c1−c0) (5) where P=D/h is the permeability in m/s.
Thus the permeability of one pore can be estimated from the diffusion coefficient and the thickness of the membrane (10 μm, guinea pig).

[3] = Diffusion of 500 μM rhodamine B across RWM in Franz Cell, with and without manual perforation (10 μm / 100 μm needle); format: in vitro ADME, guinea pig
Protocol: In another embodiment, a model for measuring diffusion across a guinea pig RWM, was developed and tested. The model is applicable for analysis of the RWM both with and without microperforations. Semicircular canals were removed from the pigs and RWM exposed prior to perforation. In the exemplary embodiment, the cochlea, sparing the RWM, was embedded in a 3D-printed acrylic holder using hybrid dental composite and light cured to adapt the round window niche to a 3 ml Franz™ Cell. The Franz™ Cell is a widely recognized standardized method for studying transdermal drug delivery. Microperforations were created with a 10 μm diameter needle (as shown in FIG. 32) and examined with fluorescent light microscopy (FSX-100, as shown in FIG. 31) as a function of time exposure.
In the exemplary embodiment show in FIGS. 33-34, a Franz Cell was customized in accordance with the present disclosure to include an adapter to allow analysis of a very small membrane in the Franz Cell. The adaptor depicted in FIGS. 33B and 34 was manufactured with a 3-dimensional printer, though alternative manufacturing techniques (and suitable materials) are contemplated to be within the scope of the disclosure. The adaptor includes a downwardly extending protrusion or lip (see reference numerals “A” and “B” in FIG. 33) which are configured to engage the Receptor portion of the Franz Cell.
Similarly, FIGS. 37A-C illustrate various Z-stacked perforation images which were compiled from 60 images taken at 5 μm intervals of RWM with perforation: A) bright field microscopy; B) bright field microscopy post diffusion with RhoB; C) Fluorescent microscopy
Manual perforations made with 10 μm needle tip produce an elliptical hole (see arrow in FIG. 38) with axes 30 μm (26-34)×47 μm (44-50). In one example, a manual perforation with 100 μm needle tip created an elliptical tear in the membrane Measuring […]×460 μm, as shown in FIG. 38 (in which the dot “D” indicates tip size).

[4] = Diffusion of 1 mM Rhodamine B across RWM in static Franz diffusion cells, with and without 12.5 μm microperforation; format: in vitro ADME, guinea pig; conditions: for time to reach 10 μM: expected
Protocol: The diffusion across guinea pig RWM, with and without microperforation, was developed and tested: cochleae, sparing the RWM, were embedded in 3D-printed acrylic holders using hybrid dental composite and light cured to adapt the round window niche to 3 ml Franz diffusion cells. Perforations were created with 12.5 μm diameter needles and examined with light microscopy. Diffusion of 1 mM Rhodamine B across RWM in static diffusion cells was measured via fluorescence microscopy.
In order to carry out this analysis, diffusion of RhoB through the RWM was performed on 12 Hartley Strain Guinea Pigs in a modified diffusion cell at room temperature. Franz™ Cell-type diffusion cells (PermeGear, Inc., Hellertown, Pa.) are made of borosilicate glass and have a 5 mm orifice and a 3 ml receptor volume with flat ground joints (FIG. 30). The cell consists of three parts (FIG. 33): donor chamber, membrane, and receptor chamber.
The donor chamber was filled with 0.3 ml of 1 mM RhoB in PBS meeting the conditions for continuous infinite dosing. Donor chamber was covered with Parafilm® for the duration of the experiment. Drug application surface was determined by size of RWM.
Guinea pig RWM was embedded in an acrylic holder with dental composites (FIG. 34). The acrylic holder was designed and 3D printed (Objet 24, Stratasys, MN) to allow for adaptation of the round window niche containing RWM to the diffusion cell. Dental composites (Dentsply, Milford, Del.) included primer (Prime & Bond® NT™) and a urethane modified Bis-GMA resin (TPH Spectra™) which were light cured at 20 s intervals with a 470 nm light emitting diode greater than 500 mW/cm^2. The diffusion cell was assembled with two custom expanded Polytetraflurane (PTFE) gaskets, 1.5 mm thick, to prevent leakage from the donor or receptor chambers at the diffusion cell/membrane interface. The acrylic holder was tested for reactivity with RhoB and was inert for >48 hours. The RWM was equilibrated in PBS solution for 30 minutes prior to application of RhoB. Membranes were embedded and equilibrated within 2 hours of euthanasia.
Microperforations were introduced in the RWM with manual application of a minutien insect pin (Size 000, 12.5 μm diameter tip, 250 μm diameter shaft) under a binocular microscope. All membranes were imaged before and after diffusion study using bright field, phase contrast or fluorescent microscopy and Z-stacking. Imaging was used to confirm the presence or absence of membrane perforation. 60 images at […] intervals were taken and compiled to create one image. ImageJ (Rasband, W. S., Image J, U.S. National Institutes of Health, Bethesda, Md.) was used to calculate the size of the membrane and, if present, perforation.
The receptor chamber was filled with 3 ml of PBS and continuously stirred at 650 rpm with a cylindrical Teflon® magnetic stirbar to allow rapid mixing of contents without development of a vortex. Sampling port allowed for extraction of fluid samples at various time points to monitor progression of diffusion. The set up and sampling conditions were validated for consistency in the following categories: 1) diffusion cell dimensions, 2) stir bar speed, and 3) sampling frequency, to increase the precision of results across experiments^23.
Sampling of the receiver chamber was made at 12 predetermined times over 24 hours and analyzed with fluorescent microscopy. At each time point 90 μL was removed using a stretched syringe from the center of the receptor chamber and the volume was replaced with 90 μL of fresh PBS. These diffusion experiments are considered static as solution from the receptor chamber is renewed by removal of a set quantity (90 μL) at sampling times and replacement of this volume with fresh medium. The removed 90 μL was then diluted with 360 μL PBS to reduce the effects of evaporation and maintain concentrations within the acceptable detection range of the microscope. The samples were placed on a tilt table to enhance mixing after dilution. […]

[5] = cited from earlier work; for D: diffusion coefficient

C[C@@H]1C[C@H]2[C@@H]3CCC4=CC(=O)C=C[C@]4(C)[C@@]3(F)[C@@H](O)C[C@]2(C)[C@@]1(O)C(=O)CO [Dexamethasone]
PRWM [1]: 5.0~35.0 × 10^−8 m/s

CCN(CC)c1ccc2c(-c3ccccc3C(=O)O)c3ccc(=[N+](CC)CC)cc-3oc2c1.[Cl-] [Rhodamine B]
predicted value of pore permeability based on the diffusion coefficient ([2]; not told): 4×10^−5 m/s
enhancement in diffusion ([3]; 10 μm needle, 30 × 47 μm perforation): 160 ×
enhancement in diffusion ([3]; 100 μm needle, 240 × 460 μm elliptical perforation): 3500 ×
Microperforated KP ([3]; guinea pig): 3.21×10^−6 m/s
time required to reach 250 μM ([3]; membranes with a small microperforation): 8.5 days
time required to reach 250 μM ([3]; unperforated membrane, 250 μM = ½ applied concentration): 3.7 years
Permeability KP RWM [4]: 0.51 ± 0.41 10^−8 ms^−1
permeability across the perforation itself [4]: 8.3±2.2×10^−5 m/s
permeability across the perforation relative to intact membrane [4]: 16,000 times
permeability coefficient of the RWM with microperforations [4]: 18.1±6.1×10^−8 m/s
time to reach 10 μM ([4]; 3×3 array of perforations): 30 min
time to diffuse 10 μM across the RWM ([4]; intact membrane): 7 days
increase in permeability / enhancement in diffusion with microperforation vs intact RWM ([4]; single 12.5 μm tip microperforation, 0.22% of membrane): 35 times
time to diffuse 10 μM across the RWM ([4]; single microperforation of approximately 2.5×10^−3 mm^2): under 5 hours
time to reach 10 μM ([4]; three perforations): 90 min
Diffusion Coefficient in water at 25° C. (298 K) [5]: 4.5 ± 0.4 10^−6 cm^2s^−1 and 4.27 ± 0.04 10^−6 cm^2s^−1

C[N+](C)(C)c1ccccc1 [TMPA]
Ppore [2]: 1.01 × 10^−4 m/s
D [5]: 1.01 × 10^−9 m2/s
permeability of the RWM ([1]; guinea pig model): 1.9×10^−8 m/s
PRWM [1]: 1.9 × 10^−8 m/s

Gentamicin
Ppore [2]: 6.82 × 10^−5 m/s
D [5]: 6.82 × 10^−10 m2/s
Diffusion Coefficient in water at 25° C. (298 K) [5]: 6.82 10^−6 cm^2s^−1
PRWM [1]: 3.5 ± 4.6 × 10^−8 m/s
